The record followed here is paper PMC12455397 (Angewandte Chemie (International Ed. in English), 2025).

The target in the assay is human Keap1 Kelch (Homo sapiens, UniProt Q14145). Kind of assay: Fluorescence polarization (FP) competition assay with Cy5-Nrf2 peptide probe. The note with it: for Ki: ≥3 individual measurements; for ligand efficiency (LE): from FP Ki; for fold improvement in binding affinity (FP) over parent analogue: 7 vs 4, 12 vs 7, 13 vs 12. (In fluorescence polarisation assays a small probe gives low polarisation when free and higher when bound to something large.)

The mark [1] stands for this setting: FP (Ki/nM), Table S2, mean ± SEM, NA: not active (measured up to 4 mM).
[2] abbreviates: Ki (FP), mean, text and figures.

In general, Ki refers to a dissociation constant, usually derived from enzyme kinetics or from competition with a known ligand. The low end stands for a stronger hold on the target, the high end for a looser hold on the target.

human Keap1 Kelch, sequence (Q14145 321-609): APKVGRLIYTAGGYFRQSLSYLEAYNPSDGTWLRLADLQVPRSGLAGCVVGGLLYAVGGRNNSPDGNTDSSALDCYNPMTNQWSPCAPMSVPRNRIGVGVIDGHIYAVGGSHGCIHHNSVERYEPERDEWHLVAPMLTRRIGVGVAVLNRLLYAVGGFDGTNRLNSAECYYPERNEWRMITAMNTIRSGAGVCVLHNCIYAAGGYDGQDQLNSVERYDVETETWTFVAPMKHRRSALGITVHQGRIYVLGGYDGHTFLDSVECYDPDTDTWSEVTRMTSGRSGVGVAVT
Experimental: Fluorescence Polarization Assay
(3 nM) and human Keap1 Kelch at 14 nM in the 1×HBSTET assay buffer, as previously.[1, 3-5] In short, the assay was performed in black flat-bottom 384-well plates (Corning Life Sciences, NY) allowing an assay volume of 30 μL/well. Proper mixing and elimination of air bubbles was ascertained by spinning down the plates and incubation for 10–15 minutes at RT before measuring FP levels on a Safire2 plate-reader (Tecan, Männedorf, Switzerland). The Ki values of the compounds were determined by dose-response experiments (12-points, 4% DMSO in all wells), where FP values were fitted to the equation Y = Bottom + (Top - Bottom)/[1 + (10HillSlope*(LogIC50-X))]; X representing the logarithmic value of compound concentration. The resulting IC50 value, together with the Kd value (the dissociation constant between probe and Keap1 Kelch, determined in a prior experiment) and Keap1 Kelch concentrations, was used to calculate the theoretical competitive inhibition constant, the Ki value.[18]

Consider `O=C(O)CCc1cccc(OCC(=O)NC2CCCCC2)c1` [Compound 2], for which the “activity in FP competition assay” value is “inactive”.

`O=C(COc1cccc(N2CCC(C(=O)O)CC2)c1)NC1CCCCC1` [Compound 3]: the “ligand efficiency (LE)” value is given as 0.20. Under setting [1], this compound gave a Ki of 162000 ± 22000 nM. Under “Ki (FP), mean”, the Ki came out at 160000 nM.

With `O=C(O)CCc1ccc2ccc(OCC(=O)NC3CCCCC3)cc2c1` [Compound 4], the “ligand efficiency (LE)” value turned out to be 0.25. Under setting [1], this compound yielded a Ki of 15500 ± 1300 nM. In addition, the Ki (Ki (FP), mean) is 16000 nM.

On to `O=C(O)CCc1ccc2ccc(OCC(=O)NC3CCOCC3)cc2c1` [Compound 5], for which the Ki is, setting by setting: under setting [1], 38300 ± 2900 nM; (Ki (FP), mean) 38000 nM.

`O=C(O)CCc1ccc2ccc(OCC(=O)NN3CCOCC3)cc2c1` [Compound 6] registered an inhibition constant (Ki) under setting [1] of 268000 ± 29000 nM and a Ki (Ki (FP), mean) of 270000 nM.

Turning to `O=C(O)CCc1ccc2ccc(OCC(=O)NC3CCCCCC3)cc2c1` [Compound 7], the “fold improvement in binding affinity (FP) over parent analogue” value (shortened to “fold improvement … over parent analogue”) is recorded as 2 fold and the “ligand efficiency (LE)” value came out at 0.26. The compound further yielded a Ki under setting [1] of 6560 ± 580 nM. The compound further had a Ki (Ki (FP), mean) of 6600 nM.

For the compound `O=C(O)CCc1ccc2ccc(OCC(=O)Nc3ccccc3)cc2c1` [Compound 8], the Ki runs as follows: under setting [1], 10200 ± 2400 nM; (Ki (FP), mean) 10000 nM.

Take `COc1ccc(NC(=O)COc2ccc3ccc(CCC(=O)O)cc3c2)cc1` [Compound 9]: the Ki worked out at 69600 ± 9400 nM under setting [1] and 70000 nM (Ki (FP), mean).

Consider `Cc1cc(C)c(NC(=O)COc2ccc3ccc(CCC(=O)O)cc3c2)c(C)c1` [Compound 10], for which the Ki runs as follows: under setting [1], 21300 ± 710 nM; (Ki (FP), mean) 21000 nM.

Regarding `Cc1cc(C)c(C)c(NC(=O)COc2ccc3ccc(CCC(=O)O)cc3c2)c1C` [Compound 11], the Ki was determined as 196000 ± 24000 nM under setting [1] and 200000 nM (Ki (FP), mean).

Take `O=C(O)CC(c1ccccc1)c1ccc2ccc(OCC(=O)NC3CCCCCC3)cc2c1` (stereo not drawn) [Compound 12]: the “fold improvement … over parent analogue” value is 6 fold and the “ligand efficiency (LE)” value is listed as 0.25. Moreover, the Ki under setting [1] is 1060 ± 99 nM. The same compound yielded a Ki (Ki (FP), mean) of 1100 nM.

Consider `COc1ccc(C(CC(=O)O)c2ccc3ccc(OCC(=O)NC4CCCCCC4)cc3c2)cc1` (stereo not drawn) [Compound 13], for which the “fold improvement … over parent analogue” value amounted to 34 fold and the “ligand efficiency (LE)” value turned out to be 0.29. The compound also registered a Ki under setting [1] of 31.6 ± 2.6 nM. In addition, the Ki under setting [2] was determined as 32 nM.

`COc1cccc(C(CC(=O)O)c2ccc3ccc(OCC(=O)NC4CCCCCC4)cc3c2)c1` (stereo not drawn) [Compound 14]: the Ki runs as follows: under setting [1], 284 ± 31 nM; under setting [2], 280 nM.

Compound `O=C(O)CC(c1ccc(Cl)cc1)c1ccc2ccc(OCC(=O)NC3CCCCCC3)cc2c1` (stereo not drawn) [Compound 15] yielded a Ki under setting [1] of 294 ± 25 nM and a Ki under setting [2] of 290 nM.

With `O=C(O)CC(c1cccc(Cl)c1)c1ccc2ccc(OCC(=O)NC3CCCCCC3)cc2c1` (stereo not drawn) [Compound 16], affinity under setting [1] was put at a Ki of 53.9 ± 6.1 nM and the affinity under setting [2] corresponds to a Ki of 54 nM.

Consider `COc1ccc(C(CC(=O)O)c2ccc3ccc(OCC(=O)NC4CCCCCC4)cc3c2)c(C)c1` (stereo not drawn) [Compound 17], for which the Ki is, setting by setting: under setting [1], 23.6 ± 2.2 nM; under setting [2], 24 nM.

Turning to `Cc1c(Cl)cccc1C(CC(=O)O)c1ccc2ccc(OCC(=O)NC3CCCCCC3)cc2c1` (stereo not drawn) [Compound 18], the Ki runs as follows: under setting [1], 59.5 ± 8.4 nM; under setting [2], 60 nM.

In the case of `O=C(O)CC(c1ccc2c(c1)OCO2)c1ccc2ccc(OCC(=O)NC3CCCCCC3)cc2c1` (stereo not drawn) [Compound 19], the “ligand efficiency (LE)” value is 0.29. Besides, under setting [1], affinity was put at a Ki of 23.2 ± 1.3 nM. Under setting [2], this compound displayed a Ki of 23 nM.

Regarding `O=C(O)CC(c1ccc2c(c1)CCO2)c1ccc2ccc(OCC(=O)NC3CCCCCC3)cc2c1` (stereo not drawn) [Compound 20], the affinity under setting [1] corresponds to a Ki of 35.5 ± 3.4 nM and affinity under setting [2] was put at a Ki of 36 nM.

As for `O=C(O)CC(c1ccc2ccc(OCC(=O)NC3CCCCCC3)cc2c1)c1ccc2occc2c1` (stereo not drawn) [Compound 21], the affinity under setting [1], expressed as Ki, was 38.3 ± 1.6 nM and the affinity under setting [2], expressed as Ki, was 38 nM.

For `O=C(O)CC(c1ccc2c(c1)OC(F)(F)O2)c1ccc2ccc(OCC(=O)NC3CCCCCC3)cc2c1` (stereo not drawn) [Compound 22], the Ki reads like this: under setting [1], 33.8 ± 4.7 nM; under setting [2], 34 nM.

`O=C(O)CC(c1ccc2c(c1)OCCO2)c1ccc2ccc(OCC(=O)NC3CCCCCC3)cc2c1` (stereo not drawn) [Compound 23] showed a Ki under setting [2] of 15 nM.

As to `Cc1cc2occc2cc1C(CC(=O)O)c1ccc2ccc(OCC(=O)NC3CCCCCC3)cc2c1` (stereo not drawn) [Compound 26], the Ki is, setting by setting: under setting [1], 15.6 ± 2.6 nM; under setting [2], 16 nM.

`Cc1cc2c(cc1C(CC(=O)O)c1ccc3ccc(OCC(=O)NC4CCCCCC4)cc3c1)OC(F)(F)O2` (stereo not drawn) [Compound 27]: the Ki by setting is: under setting [1], 14.1 ± 2.4 nM; under setting [2], 14 nM.

As to `O=C(O)CC(c1ccc2c(c1)OCO2)c1ccc2ccc(OCC(=O)NC3CCCCC3)cc2c1` (stereo not drawn) [Compound 29], the Ki under setting [1] was found to be 57.1 ± 4.8 nM and affinity under setting [2] was put at a Ki of 57 nM.

Consider `O=C(O)CC(c1ccc2c(c1)CCO2)c1ccc2ccc(OCC(=O)NC3CCCCC3)cc2c1` (stereo not drawn) [Compound 30], for which the Ki runs as follows: under setting [1], 82.1 ± 7.9 nM; under setting [2], 82 nM.

Consider `O=C(O)CC(c1ccc2ccc(OCC(=O)NC3CCCCC3)cc2c1)c1ccc2occc2c1` (stereo not drawn) [Compound 31], for which the affinity under setting [1], expressed as Ki, was 68.2 ± 12 nM and the affinity under setting [2] corresponds to a Ki of 68 nM.

`O=C(O)CC(c1ccc2c(c1)OC(F)(F)O2)c1ccc2ccc(OCC(=O)NC3CCCCC3)cc2c1` (stereo not drawn) [Compound 32] gave a Ki under setting [1] of 51.4 ± 4.8 nM and a Ki under setting [2] of 51 nM.

As to `O=C(O)CC(c1ccc2c(c1)OCCO2)c1ccc2ccc(OCC(=O)NC3CCCCC3)cc2c1` (stereo not drawn) [Compound 33], the Ki stood at 29.3 ± 1.7 nM under setting [1] and 29 nM under setting [2].

For `Cc1cc2c(cc1C(CC(=O)O)c1ccc3ccc(OCC(=O)NC4CCCCC4)cc3c1)OCO2` (stereo not drawn) [Compound 34], the Ki by setting is: under setting [1], 18.1 ± 5.9 nM; under setting [2], 18 nM.

The compound `Cc1cc2c(cc1C(CC(=O)O)c1ccc3ccc(OCC(=O)NC4CCCCC4)cc3c1)CCO2` (stereo not drawn) [Compound 35] yielded a Ki under setting [1] of 32.4 ± 1.3 nM and a Ki under setting [2] of 32 nM.

`Cc1cc2occc2cc1C(CC(=O)O)c1ccc2ccc(OCC(=O)NC3CCCCC3)cc2c1` (stereo not drawn) [Compound 36] came in with a Ki under setting [1] of 24.4 ± 0.4 nM and a Ki under setting [2] of 24 nM.

For `Cc1cc2c(cc1C(CC(=O)O)c1ccc3ccc(OCC(=O)NC4CCCCC4)cc3c1)OC(F)(F)O2` (stereo not drawn) [Compound 37], the Ki under setting [2] was determined as 7.1 nM.

As for `Cc1cc2c(cc1C(CC(=O)O)c1ccc3ccc(OCC(=O)NC4CCCCC4)cc3c1)OCCO2` (stereo not drawn) [Compound 38], the Ki came to 14.9 ± 0.8 nM under setting [1] and 15 nM under setting [2].

For `O=C(O)CC(c1ccc2c(c1)OCO2)c1ccc2ccc(OCC(=O)NC3C=CCCC3)cc2c1` (stereo not drawn) [Compound 39], the Ki was found to be 24.5 ± 1.7 nM under setting [1] and 25 nM under setting [2].

For `O=C(O)CC(c1ccc2ccc(OCC(=O)NC3C=CCCC3)cc2c1)c1ccc2occc2c1` (stereo not drawn) [Compound 41], the Ki under setting [1] stood at 21.1 ± 1.5 nM and the Ki under setting [2] stood at 21 nM.

Consider `O=C(O)CC(c1ccc2c(c1)OC(F)(F)O2)c1ccc2ccc(OCC(=O)NC3C=CCCC3)cc2c1` (stereo not drawn) [Compound 42], for which the Ki runs as follows: under setting [1], 29.9 ± 2.2 nM; under setting [2], 30 nM.

For `O=C(O)CC(c1ccc2c(c1)OCCO2)c1ccc2ccc(OCC(=O)NC3C=CCCC3)cc2c1` (stereo not drawn) [Compound 43], the Ki runs as follows: under setting [1], 20.3 ± 2.1 nM; under setting [2], 20 nM.

Turning to `Cc1cc2c(cc1C(CC(=O)O)c1ccc3ccc(OCC(=O)NC4C=CCCC4)cc3c1)CCO2` (stereo not drawn) [Compound 45], the Ki reads like this: under setting [1], 18.3 ± 2.4 nM; under setting [2], 18 nM.
